Data on 11 compounds can be found in ChEMBL document CHEMBL2202954, “The effect of PLC-γ2 inhibitors on the growth of human tumour cells” (2012).

Molecules are shown by their SMILES.

Holding throughout (assay type): functional
Assay [1] deals with KM12. Put plainly: Cytotoxicity against human KM12 cells assessed as cellular growth at 10 uM by SRB assay.
For assay [2], the system named is TK-10. Put plainly: Cytotoxicity against human TK10 cells assessed as cellular growth at 10 uM by SRB assay. A general note: Sulforhodamine B stains cellular protein and so reports cell mass.
The test system of assay [3] is ACHN. Put plainly: Cytotoxicity against human ACHN cells assessed as cellular growth at 10 uM by SRB assay.
Assay [4] relates to A549. Put plainly: Cytotoxicity against human A549 cells assessed as cellular growth at 10 uM by SRB assay.
Assay [5] relates to SN12C. Put plainly: Cytotoxicity against human SN12C cells assessed as cellular growth at 10 uM by SRB assay.
Assay [6] deals with Hs-578T. Put plainly: Cytotoxicity against human Hs578T cells assessed as cellular growth at 10 uM by SRB assay.
Assay [7] has as its system NCI-H522. Put plainly: Cytotoxicity against human NCI-H522 cells assessed as cellular growth at 10 uM by SRB assay.
The test system of assay [8] is 786-0. Put plainly: Cytotoxicity against human 786-0 cells assessed as cellular growth at 10 uM by SRB assay.
Assay [9] concerns CAKI-1. Put plainly: Cytotoxicity against human Caki1 cells assessed as cellular growth at 10 uM by SRB assay.
Assay [10] deals with RPMI-8226. Put plainly: Cytotoxicity against human RPMI8226 cells assessed as cellular growth at 10 uM by SRB assay.
Assay [11] relates to DU-145. Put plainly: Cytotoxicity against human DU145 cells assessed as cellular growth at 10 uM by SRB assay.
The test system of assay [12] is SF-295. Put plainly: Cytotoxicity against human SF295 cells assessed as cellular growth at 10 uM by SRB assay.
Assay [13] has as its system HCT-116. Put plainly: Cytotoxicity against human HCT116 cells assessed as cellular growth at 10 uM by SRB assay.
Assay [14] relates to NCI-H23. Put plainly: Cytotoxicity against human NCI-H23 cells assessed as cellular growth at 10 uM by SRB assay.
Assay [15] relates to SK-MEL-5. Put plainly: Cytotoxicity against human SK-MEL-5 cells assessed as cellular growth at 10 uM by SRB assay.
Assay [16] deals with UACC-62. Put plainly: Cytotoxicity against human UACC62 cells assessed as cellular growth at 10 uM by SRB assay.
Assay [17] has as its system K562. Put plainly: Cytotoxicity against human K562 cells assessed as cellular growth at 10 uM by SRB assay.
Assay [18] deals with Malme-3M. Put plainly: Cytotoxicity against human MALME-3M cells assessed as cellular growth at 10 uM by SRB assay.
Assay [19] relates to MDA-MB-435. Put plainly: Cytotoxicity against human MDA-MB-435 cells assessed as cellular growth at 10 uM by SRB assay.
Assay [20] concerns T47D. Put plainly: Cytotoxicity against human T47D cells assessed as cellular growth at 10 uM by SRB assay.

`O=c1/c(=C/c2ccccc2Cl)sc2nc(-c3ccccc3)nn12`: the Activity was 89.57% in [1]; 123.92% in assay [2]; 97.57% in [3]; 87.55% in assay [4]; 94.39% in assay [5]; 89.46% in assay [6]. For the same compound, the Activity in [7] came out at 85.92%; in assay [8], 101.12%; in assay [9], 98.22%; in [10] it was 50.72%; in assay [11] it was 92.88%; in assay [12], 99.98%. Also, the Activity in [13] is 72.43%; in assay [14] it was 86.7%; in assay [15], 93.49%; in assay [16] it was 83.77%; in assay [17], 48.93%; in [18] it was 92.95%. In addition, the Activity in assay [19] turned out to be 78.08%; in assay [20], 90.39%.

Regarding `c1ccc(-c2nc(-c3cccs3)no2)cc1`, the Activity was found to be 99.88% in [1]; 97.25% in assay [2]; 102.77% in assay [3]; 106.51% in assay [4]; 91.08% in assay [5]; 100.69% in assay [6]. Also, the Activity was found to be 96.9% in [7]; 107.03% in [8]; 100.18% in [9]; 102.22% in assay [10]; 103.67% in assay [11]; 128.58% in assay [12]. Further, the Activity in assay [13] stood at 104.23%; in assay [14], 93.94%; in assay [15], 97.58%; in assay [16] it was 93.02%; in [17], 100.51%; in [18] it was 131.39%. Besides, the Activity in assay [19] amounted to 113.41%; in [20], 65.5%.

Take `O=C(NCCc1ccccc1)c1[nH]c2ccccc2c1Cl`: the Activity in [1] is on record as 72.97%; in [2] it was 154.81%; in [3], 90.71%; in assay [4], 96.24%; in assay [5], 97.03%; in assay [6], 97.21%. In addition, the Activity amounted to 96.12% in assay [7]; 102.69% in assay [8]; 78.12% in assay [9]; 71.07% in [10]; 91.9% in [11]; 82.28% in assay [12]. Also, the Activity in [13] came out at 87.15%; in [14], 84.26%; in assay [15], 82.39%; in [16] it was 84.19%; in assay [17] it was 74.92%; in assay [18], 109.22%. The Activity in [19] amounted to 96.07%; in assay [20], 71.67%.

For the compound `N#Cc1ccc(-n2nnc3ccccc32)cc1C#N`, the Activity in [1] was found to be 96.37%; in [2] it was 133.56%; in assay [3], 102.68%; in assay [4], 87.19%; in assay [5], 101.03%; in assay [6], 105.04%. Further, the Activity amounted to 88.08% in [7]; 99.49% in assay [8]; 85.44% in [9]; 100.67% in assay [10]; 93.52% in [11]; 91.5% in assay [12]. For the same compound, the Activity in [13] came to 102.06%; in [14] it was 94%; in [15] it was 97.62%; in assay [16], 94.5%; in assay [17], 92.97%; in assay [18], 96.58%. Besides, the Activity in assay [19] turned out to be 85.25%; in assay [20], 86.31%.

For the compound `Nc1c(C(=O)Nc2cccc(Cl)c2)sc2nc3c(cc12)C(=O)CCC3`, the Activity was 21.64% in assay [1]; 64.95% in assay [2]; 54.19% in [3]; 28.25% in assay [4]; 54.42% in [5]; 4.53% in [6]. For the same compound, the Activity in assay [7] is given as 14.59%; in assay [8] it was 47.72%; in assay [9], 40.31%; in [10] it was 51.81%; in assay [11], 11.61%; in [12] it was -20.21%. For the same compound, the Activity in assay [13] is 27.38%; in assay [14], 38%; in assay [15], 27.21%; in assay [16], 43.7%; in [17], 22.78%; in [18], 49.7%. For the same compound, the Activity was -39.08% in [19] and 52.94% in [20].

Turning to `O=C(NCc1ccc(Cl)cc1)c1[nH]c2ccccc2c1Cl`, the Activity in [1] is recorded as 95.16%; in [2], 163.4%; in [3], 104.7%; in assay [4], 94.27%; in [5], 99.33%; in [6] it was 100.36%. The Activity was determined as 103.35% in assay [7]; 106.78% in assay [8]; 91.63% in assay [9]; 90.9% in assay [10]; 105.86% in [11]; 94.4% in assay [12]. The Activity in assay [13] was 103.25%; in assay [14] it was 95.58%; in assay [15], 95.97%; in assay [16], 96.15%; in [17], 102.78%; in assay [18], 98.93%. The Activity was 103.29% in assay [19] and 96.29% in assay [20].

In the case of `O=C(Nc1nc2ccc(Cl)cc2s1)c1ccc(Cl)cc1Cl`, the Activity was found to be 110.91% in assay [1]; 88.34% in assay [2]; 109.65% in [3]; 95.4% in assay [4]; 113.76% in assay [5]; 113.99% in assay [6]. Further, the Activity in assay [7] is recorded as 98.66%; in [8] it was 95.62%; in [9] it was 79.85%; in [10], 91.09%; in assay [11] it was 108.4%; in [12], 76.92%. For the same compound, the Activity in assay [13] was 105.32%; in assay [14] it was 99%; in assay [15], 89.76%; in [16] it was 96.19%; in assay [17] it was 86.31%; in assay [18] it was 109.41%. The Activity in assay [19] turned out to be 94.59%; in [20], 95.96%.

Take `Clc1cccc(-c2nc(-c3cccs3)no2)c1`: the Activity in assay [1] turned out to be 102.96%; in assay [2] it was 74.63%; in assay [3] it was 101.08%; in assay [4], 94.77%; in assay [5] it was 100.21%; in assay [6], 99.53%. The Activity in [7] is 85.77%; in [8] it was 94.52%; in [9], 99.54%; in assay [10], 95.28%; in [11], 97.4%; in [12], 108.42%. The Activity in assay [13] is listed as 97.8%; in assay [14] it was 89.88%; in [15], 87.95%; in assay [16], 88.07%; in assay [17] it was 100.73%; in [18] it was 111.38%. In addition, the Activity is on record as 106.73% in assay [19] and 56.93% in assay [20].

`Cc1ccc(S(=O)(=O)Oc2ccc(-c3cnc4ccccc4n3)cc2)cc1`: the Activity is 105.85% in [1]; 98.17% in assay [2]; 102.63% in assay [3]; 95.53% in assay [4]; 108.92% in [5]; 110.2% in [6]. Besides, the Activity in [7] was 93.02%; in assay [8], 96.77%; in [9], 92.87%; in [10], 88.46%; in assay [11] it was 114.58%; in assay [12] it was 89.7%. The Activity worked out at 106.69% in assay [13]; 96.23% in assay [14]; 84.98% in assay [15]; 94.5% in assay [16]; 84.2% in assay [17]; 122.99% in assay [18]. The Activity in [19] came out at 96.62%; in [20] it was 87.98%.

In the case of `Cc1cc(C)c(NC(=O)c2sc3nc4c(cc3c2N)C(=O)CC(C)(C)C4)c(C)c1`, the Activity is 112.78% in assay [1]; 97.91% in assay [2]; 106.81% in assay [3]; 96.6% in assay [4]; 103.6% in assay [5]; 108.69% in [6]. In addition, the Activity in assay [7] is given as 100.45%; in assay [8], 103.33%; in assay [9] it was 82.45%; in assay [10], 90.56%; in assay [11], 127.81%; in assay [12], 81.11%. Besides, the Activity is recorded as 99.79% in [13]; 94.31% in assay [14]; 89.79% in [15]; 96.9% in [16]; 90.16% in assay [17]; 92.73% in assay [18]. Also, the Activity in assay [19] was 97.97%; in assay [20] it was 88.69%.

With `Cc1ccccc1NC(=O)c1sc2nc3c(cc2c1N)C(=O)CCC3`, the Activity is given as 19.22% in assay [1]; 81.15% in assay [2]; 49.27% in assay [3]; 37.59% in assay [4]; 64.53% in [5]; 25.78% in assay [6]. Also, the Activity in [7] turned out to be 12.53%; in assay [8] it was 51.56%; in assay [9] it was 55.35%; in assay [10] it was 67.19%; in [11], 18.31%; in assay [12], 57.18%. In addition, the Activity is reported as 34.55% in [13]; 50.58% in [14]; 18.64% in [15]; 36.9% in assay [16]; 22.15% in assay [17]; 66.45% in assay [18]. In addition, the Activity is -12.89% in assay [19] and 43.92% in assay [20].
